IC50 data for 43 molecules are collected here from patent publication US10533006B2, “Nitrogen-containing heterocycle and carbocycle derivatives having TrkA inhibitory activity” (Shionogi & Co., Ltd., priority 2016, dated 2020).

Each structure is given as a SMILES string. Bounds are passed on as bounds.

In one test the target is T1, human TrkA (Homo sapiens, UniProt P04629).
T1 construct: purchased Lifetechnologies PV3144
T1 sequence (P04629 33-796): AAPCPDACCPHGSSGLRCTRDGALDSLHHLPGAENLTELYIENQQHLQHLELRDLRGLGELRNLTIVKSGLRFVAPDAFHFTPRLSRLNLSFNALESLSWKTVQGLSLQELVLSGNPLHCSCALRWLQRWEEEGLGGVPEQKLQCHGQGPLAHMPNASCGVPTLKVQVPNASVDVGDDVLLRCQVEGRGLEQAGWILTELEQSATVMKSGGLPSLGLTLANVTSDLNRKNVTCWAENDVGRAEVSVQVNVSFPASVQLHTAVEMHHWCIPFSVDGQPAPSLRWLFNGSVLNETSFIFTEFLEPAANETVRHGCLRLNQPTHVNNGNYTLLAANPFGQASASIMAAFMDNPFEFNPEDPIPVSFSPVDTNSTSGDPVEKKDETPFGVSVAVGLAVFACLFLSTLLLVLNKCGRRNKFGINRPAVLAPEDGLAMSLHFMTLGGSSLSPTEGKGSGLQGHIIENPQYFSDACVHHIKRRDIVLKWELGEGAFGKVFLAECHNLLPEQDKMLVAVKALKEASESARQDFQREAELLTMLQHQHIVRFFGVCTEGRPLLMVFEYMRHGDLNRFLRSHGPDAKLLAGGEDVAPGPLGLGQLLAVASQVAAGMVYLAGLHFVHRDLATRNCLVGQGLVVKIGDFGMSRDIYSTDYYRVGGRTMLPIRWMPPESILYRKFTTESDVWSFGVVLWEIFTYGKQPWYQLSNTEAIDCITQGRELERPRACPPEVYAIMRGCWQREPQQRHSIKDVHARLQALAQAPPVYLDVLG
The test can be described thus: Human TrkA inhibition assay. Type of test: biochemical. The note with it: human TrkA phosphorylation inhibition, ATP 500 μmol/L; read-out: IC50_nM. On the procedure: Seven point five L per well of human TrkA (PV3144, Lifetechnologies, final concentration: 1 nmol/L) suspended in the assay buffer (100 mmol/L 4-(2-hydroxyethyl)-1-piperazineethanesulfonic acid (HEPES), 10 mmol/L magnesium chloride, 0.003 vol % Brij-35, 0.004 vol % Tween20 and 1 mmol/L dithiothreitol (DTT)) was applied in a 384 well plate and the plate was pre-incubated for 15 min at room temperature with 0.4 μL of each compound (final concentration: 200 μmol/L-0.1 nM) dissolved in DMSO. Then, fluorescent substrate (FL-peptide 27, 760424, PerkinElmer, final concentration: 1.5 μmol/L) and ATP (final concentration 500 μmol/L) dissolved in the assay buffer was added in each well. After the incubation of 120 min at 37° C., fifteen μL of termination buffer (100 mmol/L HEPES, 40 mmol/L ethylenediaminetetraacetic acid (EDTA), 10 mmol/L magnesium chloride, 0.003 vol % Brij-35, 0.004 vol % Tween20, 1 mmol/L DTT and 0.16 vol % Coating Reagent 3) was added in each well to stop the enzyme reaction. Fluorescent intensities (FI) of phosphorylated and non-phosphorylated fluorescent substrates were measured by LabChip EZReader II (Caliper LifeSciences, Inc.), and conversion ratio (CR) was calculated by the following formula-1. The CR in the well applied with DMSO alone was used as a negative control and the CR in the well without applying TrkA was used as a positive control. The inhibitory effect of each compound on TrkA phosphorylation was calculated by the following formula-2. CR (%)=(FI of phosphorylated substrate/(FI of phosphorylated substrate+FI of non-phosphorylated substrate))×100 (Formula-1) Phosphorylation inhibition (%)=(1−(CR with compound treatment−CR of positive control)/(CR of negative control−CR of positive control))×100 (Formula-2)
IC50 values (nmol/L) were determined by the logistic regression using the inhibition data in 10 points of 3-fold dilution series at a compound concentration range of 2 μmol/L to 0.1 nmol/L, or 15 points of 3-fold dilution series at the range of 200 μmol/L to 0.04 nmol/L.
Turning to `CNC(=O)c1cc(-c2nn(-c3ccccc3)c(NC(=O)N[C@@H]3CN(CCOC)C[C@H]3c3ccccc3)c2C)cnc1OCF` (racemic) [Compound I-126], the IC50 was below 100 nM. Same read-out and setting: next, `CNC(=O)c1cc(-c2nn(-c3ccccc3)c(NC(=O)N[C@@H]3CN(CCOC)C[C@H]3c3ccccc3)c2C)cn(CCOC)c1=O` (racemic) [Compound I-127]: below 100 nM. The same measure, in the same setting: as for `CNC(=O)c1cc(-c2nn(-c3ccccc3)c(NC(=O)N[C@@H]3CN(CCOC)C[C@H]3c3ccccc3)c2C)cnc1OC(F)F` (racemic) [Compound I-128], the figure is below 100 nM; as for `CCNC(=O)c1cc(-c2nn(-c3ccccc3)c(NC(=O)N[C@@H]3CN(CCOC)C[C@H]3c3ccccc3)c2C)cnc1OCC` (racemic) [Compound I-129], below 100 nM; as for `CCNC(=O)c1cc(-c2nn(-c3ccccc3)c(NC(=O)N[C@@H]3CN(CCOC)C[C@H]3c3ccccc3)c2C)cnc1OCCOC` (racemic) [Compound I-130], below 100 nM. On the same count and under the same terms, as for `CCNC(=O)c1cc(-c2nn(-c3ccccc3)c(NC(=O)N[C@@H]3CN(CCOC)C[C@H]3c3ccccc3)c2C)cnc1OCC(F)F` (racemic) [Compound I-131], the figure is below 100 nM; as for `CCNC(=O)c1cc(-c2nn(-c3ccccc3)c(NC(=O)N[C@@H]3CN(CCOC)C[C@H]3c3ccccc3)c2C)cnc1OCF` (racemic) [Compound I-132], below 100 nM; as for `CCNC(=O)c1cc(-c2nn(-c3ccccc3)c(NC(=O)N[C@@H]3CN(CCOC)C[C@H]3c3ccccc3)c2C)cn(CCOC)c1=O` (racemic) [Compound I-133], below 100 nM. On to `CCNC(=O)c1cc(-c2nn(-c3ccccc3)c(NC(=O)N[C@@H]3CN(CCOC)C[C@H]3c3ccccc3)c2C)cnc1OC(F)F` (racemic) [Compound I-134], for which the IC50 was below 100 nM. On the same count and under the same terms, as for `COCCN1C[C@@H](NC(=O)Nc2c(C)c(-c3cnc4nccnc4c3)nn2-c2ccccc2)[C@H](c2ccccc2)C1` (racemic) [Compound I-135], the figure is below 100 nM; as for `COCCN1C[C@@H](NC(=O)Nc2c(C)c(-c3cc(C(=O)NC4CCOCC4)c(=O)n(CCOC)c3)nn2-c2ccccc2)[C@H](c2ccccc2)C1` (racemic) [Compound I-136], below 100 nM; as for `COCCN1C[C@@H](NC(=O)Nc2c(C)c(-c3cnc4cccnc4c3)nn2-c2ccccc2)[C@H](c2ccccc2)C1` (racemic) [Compound I-137], below 100 nM. The same measure, in the same setting: as for `COCCN1C[C@@H](NC(=O)Nc2c(C)c(-c3cnc(OC)c(C(=O)NO)c3)nn2-c2ccccc2)[C@H](c2ccccc2)C1` (racemic) [Compound I-138], the figure is below 100 nM; as for `COCCN1C[C@@H](NC(=O)Nc2c(C)c(-c3cc(C(=O)NO)c(=O)n(C)c3)nn2-c2ccccc2)[C@H](c2ccccc2)C1` (racemic) [Compound I-139], below 100 nM. Turning to `CCOc1ncc(-c2nn(-c3ccccc3)c(NC(=O)N[C@@H]3CN(CCOC)C[C@H]3c3ccccc3)c2C)cc1C(=O)NC1CCOCC1` (racemic) [Compound I-140], the IC50 was below 100 nM.

Turning to `COCCOc1ncc(-c2nn(-c3ccccc3)c(NC(=O)N[C@@H]3CN(CCOC)C[C@H]3c3ccccc3)c2C)cc1C(=O)NC1CCOCC1` (racemic) [Compound I-141], the IC50 is below 100 nM. Same read-out and setting: as for `COCCN1C[C@@H](NC(=O)Nc2c(C)c(-c3cnc(OCC(F)F)c(C(=O)NC4CCOCC4)c3)nn2-c2ccccc2)[C@H](c2ccccc2)C1` (racemic) [Compound I-142], the figure is below 100 nM; as for `COCCN1C[C@@H](NC(=O)Nc2c(C)c(-c3cnc(OCF)c(C(=O)NC4CCOCC4)c3)nn2-c2ccccc2)[C@H](c2ccccc2)C1` (racemic) [Compound I-143], below 100 nM. As to `COCCN1C[C@@H](NC(=O)Nc2c(C)c(-c3cnc(OC)c(C(=O)NC#N)c3)nn2-c2ccccc2)[C@H](c2ccccc2)C1` (racemic) [Compound I-146], the IC50 was below 100 nM.

As for `COCCN1C[C@@H](NC(=O)Nc2c(C)c(-c3cnc(OC)c(C(=O)NS(C)(=O)=O)c3)nn2-c2ccccc2)[C@H](c2ccccc2)C1` (racemic) [Compound I-147], the IC50 was below 100 nM. For the molecule `COCCN1C[C@@H](NC(=O)Nc2c(C)c(-c3ccc(C(=O)NO)nc3)nn2-c2ccccc2)[C@H](c2ccccc2)C1` (racemic) [Compound I-150], the IC50 was below 100 nM. Still for that read-out and setting: next, `CCOC(=O)NC(=O)c1cc(-c2nn(-c3ccccc3)c(NC(=O)N[C@@H]3CN(CCOC)C[C@H]3c3ccccc3)c2C)cnc1OC` (racemic) [Compound I-157]: below 100 nM.

Turning to `COCCN1C[C@@H](NC(=O)Nc2c(C)c(-c3cnc(OC)c(C(=O)NC(=O)N(C)C)c3)nn2-c2ccccc2)[C@H](c2ccccc2)C1` (racemic) [Compound I-158], the IC50 was below 100 nM. On the same count and under the same terms, as for `COCCN1C[C@@H](NC(=O)Nc2c(C)c(-c3cnc(OC)c(C(N)=O)c3)nn2-c2ccccc2)[C@H](c2ccccc2)C1` (racemic) [Compound I-161], the figure is below 100 nM. `COCCN1C[C@@H](NC(=O)Nc2c(C)c(-c3cnn(C)c3)nn2-c2ccccc2)[C@H](c2ccnc(F)c2F)C1` (racemic) [Compound I-162]: the IC50 was below 100 nM. Still for that read-out and setting: next, `COCCN1C[C@@H](NC(=O)Nc2c(C)c(-c3ccc4c(cnn4C)c3)nn2-c2ccccc2)[C@H](c2ccc(F)c(F)c2)C1` [Compound I-6]: below 100 nM; `COCC[C@@H]1C[C@@H](NC(=O)Nc2c(C)c(-c3ccc4c(cnn4C)c3)nn2-c2ccccc2)[C@H](c2ccc(F)c(F)c2)N1` [Compound I-8]: below 100 nM. Still for that read-out and setting: as for `COCC[C@@H]1C[C@@H](NC(=O)Nc2c(C)c(-c3ccc4c(cnn4C)c3)nn2-c2ccccc2)[C@H](c2ccc(F)c(F)c2)N1C` [Compound I-9], the figure is below 100 nM; as for `Cc1c(-c2ccc3c(cnn3C)c2)nn(-c2ccccc2)c1NC(=O)N[C@@H]1C[C@@H](CCOC(F)(F)F)C[C@H]1c1ccc(F)c(F)c1` [Compound I-11], below 100 nM; as for `COCC[C@@H]1C[C@@H](NC(=O)Nc2c(C)c(-c3ccc4c(cnn4C)c3)nn2-c2ccccc2)[C@H](c2ccc(F)c(F)c2)C1` [Compound I-13], below 100 nM. Same read-out and setting: next, `COCC[C@@H]1C[C@@H](NC(=O)Nc2c(C)c(-c3ccc(O)nc3)nn2-c2ccccc2)[C@H](c2ccc(F)c(F)c2)N1C` [Compound I-14]: below 100 nM; `CCN1CCC(NC(=O)c2ccc(-c3nn(-c4ccccc4)c(NC(=O)N[C@@H]4C[C@@H](CCOC)N[C@H]4c4ccc(F)c(F)c4)c3C)cc2)CC1` [Compound I-15]: below 100 nM. As for `COCC[C@@H]1C[C@@H](NC(=O)Nc2c(C)c(-c3ccc4c(cnn4C)c3)nn2-c2ccccc2)[C@H](c2ccccc2)C1` [Compound I-21], the IC50 was below 100 nM. In the case of `COCC[C@@H]1C[C@@H](NC(=O)Nc2c(C)c(-c3ccc(OCc4ccccc4)nc3)nn2-c2ccccc2)[C@H](c2ccccc2)C1` [Compound I-22], the IC50 is below 100 nM.

In the case of `COCC[C@@H]1C[C@@H](NC(=O)Nc2c(C)c(-c3ccc(=O)[nH]c3)nn2-c2ccccc2)[C@H](c2ccccc2)C1` [Compound I-23], the IC50 is below 100 nM.

As for `CCN1CCC(NC(=O)c2ccc(-c3nn(-c4ccccc4)c(NC(=O)N[C@@H]4C[C@@H](CCOC)N(C)[C@H]4c4ccc(F)c(F)c4)c3C)cc2)CC1` [Compound I-25], the IC50 was below 100 nM. `COCCN1C[C@@H](NC(=O)Nc2c(C)c(N3CCc4c(cnn4C)C3)nn2-c2ccccc2)[C@H](c2ccccc2)C1` [Compound I-58]: the IC50 was below 100 nM.

Consider `COCCN1C[C@@H](NC(=O)Nc2c(C)c(N3CCc4nn(C)cc4C3)nn2-c2ccccc2)[C@H](c2ccccc2)C1` [Compound I-59], for which the IC50 was below 100 nM.

On to `COCCN1C[C@@H](NC(=O)Nc2c(C)c(-c3ccnc(C(=O)N[C@H]4CC[C@H](O)CC4)c3)nn2-c2ccccc2)[C@H](c2ccccc2)C1` [Compound I-74], for which the IC50 is below 100 nM. On the same count and under the same terms, as for `COCCN1C[C@@H](NC(=O)Nc2c(C)c(-c3ccnc(C(=O)NC[C@@H](C)O)c3)nn2-c2ccccc2)[C@H](c2ccccc2)C1` [Compound I-75], the figure is below 100 nM; as for `COCCN1C[C@@H](NC(=O)Nc2c(C)c(-c3cnc(OC)c(C(=O)N[C@@H]4CCCOC4)c3)nn2-c2ccccc2)[C@H](c2ccccc2)C1` [Compound I-78], below 100 nM; as for `COCCN1C[C@@H](NC(=O)Nc2c(C)c(-c3cnc(OC)c(C(=O)N[C@H]4CCOC4)c3)nn2-c2ccccc2)[C@H](c2ccccc2)C1` [Compound I-80], below 100 nM.

The test is the same for the next values; noted with them: human TrkA phosphorylation inhibition, ATP 500 μmol/L; read-out: IC50 value.
With `CCN1CCC(NC(=O)c2ccc(-c3nn(-c4ccccc4)c(NC(=O)N[C@@H]4C[C@@H](CCOC)C[C@H]4c4ccccc4)c3C)cc2)CC1` [Compound I-24], the IC50 was 0.81 nM.
